The values that follow come from patent US8481537B2, “Caspase inhibitors based of pyridazinone scaffold” (LG Life Sciences Ltd., priority 2006, dated 2013).

The target in one assay is T1, Caspase-8 (Homo sapiens, UniProt Q14790).
T1 construct: p10 and p20 subunits (Thornberry, N. A. et al, Nature, 1992, 356, 768) were expressed in E. coli; made in house; host or cells: E. coli
The assay can be described thus: Caspase inhibitory effect, fluorescent substrate AcDEVD-AFC. In kind it is biochemical. The following applies: pH 7.5; 2.1 nM caspase-8, 50 μM AcDEVD-AFC, 25° C., pH 7.50; read-out: Caspase-8 Kobs/[I] (converted). As for the experimental part:
Caspase-1 and caspase-8 known as cysteine proteases in the form of α2β2 were expressed, purified, and activated by modifying a method known in Thornberry, N. A. et al, Nature, 1992, 356, 768. Thornberry, N. A. Methods in Enzymology, 1994, 244, 615. Walker, N. P. C. et al. Cell, 1994, 78, 343, and caspase-9 was also purified by a similar method, and the inhibitory activity against them was tested. Briefly describing, p10 and p20 subunits (Thornberry, N. A. et al, Nature, 1992, 356, 768) were expressed in E. coli and purified by nickel column and anionic exchange chromatography to give caspase-1, caspase-8 and caspase-9. The fluorescent substrates AcYVAD-AFC for thus obtained caspase-1, AcDEVD-AFC for caspase-8, and AcLEHD-AFC for caspase-9, were used for determining specific activity of the synthesized inhibitors. The enzyme reaction was carried out at 25° C. with various concentrations of the inhibitors in a buffer solution containing 50 mM HEPES(pH 7.50), 10% (w/v) sucrose, 0.1% (w/v) CHAPS, 100 mM NaCl, 1 mM EDTA, and 10 mM DTT in the presence of 50 μM AcYVAD-AFC for 10 nM caspase-1, 50 μM AcDEVD-AFC for 2.1 nM caspase-8, and 150 μM AcLEHD-AFC for 200 nM caspase-9. The inhibitory constants Ki and Kobs of the inhibitors were determined by measuring the reaction velocity with the time lapse using a fluorescent spectrometer and by obtaining the initial rate constant. Ki was calculated from the Lineweaver Burk Plot, and Kobs from the following Equation 1. Kobs=−ln(1−At/Aoo)/t [Equation 1]
At means cleavage rate (%) at time t, and
Aoo means the maximum cleavage rate (%).
Spectra MAX GeminiXS Fluorescent Spectrometer of Molecular Device Co. was used at the excitation wavelength of 405 nm and the emission wavelength of 505 nm.

Assay [1] deals with Jurkat cell (ATCC TIB-152). The assay can be described thus: Jurkat cell apoptosis induced by Fas antibody, WST-1 method. The class given is cell-based. The following applies: Homo sapiens, amount of alive cells by WST-1. As to the method: The […] inhibitory activity of the inhibitors was determined by subjecting Jurkat cell (ATCC TIB-152) to apoptosis using Fas antibody (Upstate Biotech 05-201) and by detecting the color change according to the WST-1 method known in Francoeur A. M. and Assalian A. (1996) Biochemica 3, 19-25 to observe the amount of alive Jurkat cells when the cells were treated by the inhibitor. Spectra MAX 340 Spectrometer of Molecular Device Co. was used at the absorbance wavelength of 440 nm.

T1 sequence (Q14790 217-374 limits assumed, species assumed): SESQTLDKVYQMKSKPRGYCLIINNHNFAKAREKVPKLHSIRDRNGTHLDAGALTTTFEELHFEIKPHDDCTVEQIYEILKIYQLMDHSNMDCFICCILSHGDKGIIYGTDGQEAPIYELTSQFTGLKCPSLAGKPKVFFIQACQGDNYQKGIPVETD
T1 sequence (Q14790 385-479 limits assumed, species assumed): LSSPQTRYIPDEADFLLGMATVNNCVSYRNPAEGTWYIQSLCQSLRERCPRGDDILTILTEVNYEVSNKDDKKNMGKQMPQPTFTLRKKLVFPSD

`CCC(C(=O)NC(CC(=O)O)C(=O)CF)c1ccnn(Cc2cccc(Cl)c2)c1=O` (stereo not shown) [Example 19, 3-{2-[2-(3-Chloro-benzyl)-3-oxo-2,3-dihydro-pyridazin-4-yl]-butyrylamino}-5-fluoro-4-oxo-pentanoic acid]: at Caspase-8, the kinact/KI was 28300 M⁻¹ s⁻¹. The compound also showed an IC50 in assay [1] of 35 nM.
For `CCC(C(=O)NC(CC(=O)O)C(=O)CF)c1ccnn(Cc2cccc(Br)c2)c1=O` (stereo not shown) [Example 20, 3-{2-[2-(3-Bromo-benzyl)-3-oxo-2,3-dihydro-pyridazin-4-yl]-butyrylamino}-5-fluoro-4-oxo-pentanoic acid], the kinact/KI at Caspase-8 is 18300 M⁻¹ s⁻¹. The midpoint of inhibition in assay [1], the IC50, lay at 43 nM.
Regarding `CCC(C(=O)NC(CC(=O)O)C(=O)CF)c1ccnn(Cc2ccccc2C(F)(F)F)c1=O` (stereo not shown) [Example 21, 5-Fluoro-4-oxo-3-{2-[3-oxo-2-(2-trifluoromethyl-benzyl)-2,3-dihydro-pyridazin-4-yl]-butyrylamino}-pentanoic acid], the kinact/KI at Caspase-8 was 66700 M⁻¹ s⁻¹. In assay [1], the IC50 was determined as 43 nM.
For `CCC(C(=O)NC(CC(=O)O)C(=O)CF)c1ccnn(Cc2cccc(C(F)(F)F)c2)c1=O` (stereo not shown) [Example 22, 5-Fluoro-4-oxo-3-{2-[3-oxo-2-(3-trifluoromethyl-benzyl)-2,3-dihydro-pyridazin-4-yl]-butyrylamino}-pentanoic acid], the kinact/KI at Caspase-8 is 14300 M⁻¹ s⁻¹. Also, in assay [1], the IC50 came to 216 nM.
The matching figures for `CC[C@@H](C(=O)N[C@@H](CC(=O)O)C(=O)COc1c(F)c(F)cc(F)c1F)c1ccnn(Cc2ccccc2C(C)(C)C)c1=O` [Example 24-1, (S)-3-{(R)-2-[2-(2-tert-Butyl-benzyl)-3-oxo-2,3-dihydro-pyridazin-4-yl]-butyrylamino}-4-oxo-5-(2,3,5,6-tetrafluoro-phenoxy)-pentanoic acid]: 63300 M⁻¹ s⁻¹ and 12 nM.
`CC[C@H](C(=O)N[C@@H](CC(=O)O)C(=O)COc1c(F)c(F)cc(F)c1F)c1ccnn(Cc2ccccc2C(C)(C)C)c1=O` [Example 24-2, (S)-3-{(S)-2-[2-(2-tert-Butyl-benzyl)-3-oxo-2,3-dihydro-pyridazin-4-yl]-butyrylamino}-4-oxo-5-(2,3,5,6-tetrafluoro-phenoxy)-pentanoic acid]: the kinact/KI on Caspase-8 was 1830 M⁻¹ s⁻¹. For the same compound, in assay [1], 4150 nM corresponded to half-maximal inhibition (IC50).
On to `CC[C@@H](C(=O)N[C@@H](CC(=O)O)C(=O)COc1c(F)c(F)cc(F)c1F)c1ccnn(Cc2cccc(C(C)(C)C)c2)c1=O` [Example 25-1, (S)-3-{(R)-2-[2-(3-tert-Butyl-benzyl)-3-oxo-2,3-dihydro-pyridazin-4-yl]-butyrylamino}-4-oxo-5-(2,3,5,6-tetrafluoro-phenoxy)-pentanoic acid], for which the kinact/KI at Caspase-8 was 26700 M⁻¹ s⁻¹. In addition, half-maximal inhibition in assay [1] (IC50) was put at 31 nM.
On to `CC[C@H](C(=O)N[C@@H](CC(=O)O)C(=O)COc1c(F)c(F)cc(F)c1F)c1ccnn(Cc2cccc(C(C)(C)C)c2)c1=O` [Example 25-2, (S)-3-{(S)-2-[2-(3-tert-Butyl-benzyl)-3-oxo-2,3-dihydro-pyridazin-4-yl]-butyrylamino}-4-oxo-5-(2,3,5,6-tetrafluoro-phenoxy)-pentanoic acid], for which, at Caspase-8, the kinact/KI was 900 M⁻¹ s⁻¹. For the same compound, in assay [1], the IC50 was found to be 1940 nM.
`CC[C@@H](C(=O)N[C@@H](CC(=O)O)C(=O)COc1c(F)ccc(F)c1F)c1ccnn(Cc2ccccc2C(C)(C)C)c1=O` [Example 26-1, (S)-3-{(R)-2-[2-(2-tert-Butyl-benzyl)-3-oxo-2,3-dihydro-pyridazin-4-yl]-butyrylamino}-4-oxo-5-(2,3,6-trifluoro-phenoxy)-pentanoic acid]: the kinact/KI at Caspase-8 is 28300 M⁻¹ s⁻¹. This compound gave an IC50 in assay [1] of 45 nM.
The matching figures for `CC[C@@H](C(=O)N[C@@H](CC(=O)O)C(=O)COc1c(F)cccc1F)c1ccnn(Cc2ccccc2C(C)(C)C)c1=O` [Example 27-1, (S)-3-{(R)-2-[2-(2-tert-Butyl-benzyl)-3-oxo-2,3-dihydro-pyridazin-4-yl]-butyrylamino}-5-(2,6-difluoro-phenoxy)-4-oxo-pentanoic acid]: 11700 M⁻¹ s⁻¹ and 90 nM.
`CCC(C(=O)N[C@@H](CC(=O)O)C(=O)COP(=O)(c1ccccc1)c1ccccc1)c1ccnn(Cc2ccccc2C(C)(C)C)c1=O` (stereo partly drawn) [Example 28, (S)-3-{2-[2-(2-tert-Butyl-benzyl)-3-oxo-2,3-dihydro-pyridazin-4-yl]-butyrylamino}-5-(diphenyl-phosphinoyloxy)-4-oxo-pentanoic acid]: the kinact/KI at Caspase-8 was 56700 M⁻¹ s⁻¹. Further, the IC50 in assay [1] turned out to be 365 nM.
